Assay results as given in publication PMC10309190, “A PI(3,5)P2 reporter reveals PIKfyve activity and dynamics on macropinosomes and phagosomes” (The Journal of Cell Biology, 2023).

What was measured:
[1] = molecular target: T1, SnxA (full-length SnxA-GFP; DDB_G0289833) (Dictyostelium discoideum, UniProt Q54GY1); test: microscopy of GFP recruitment to membrane-coated beads, probe titration; assay type: binding; conditions: 5 mol% phosphoinositide in 95 mol% POPC bilayers on silica beads; 150 mM NaCl, 20 mM Hepes, 0.5 mM TCEP, room temperature; acyl chains not given; avidity of dimer; read-out: apparent Kd
T1 construct: full length (PX domain plus coiled coil); N-terminal 6xHis and eGFP kept; E. coli BL21; mostly dimer, apparent 181 kD by mass photometry
T1 sequence (Q54GY1 1-186): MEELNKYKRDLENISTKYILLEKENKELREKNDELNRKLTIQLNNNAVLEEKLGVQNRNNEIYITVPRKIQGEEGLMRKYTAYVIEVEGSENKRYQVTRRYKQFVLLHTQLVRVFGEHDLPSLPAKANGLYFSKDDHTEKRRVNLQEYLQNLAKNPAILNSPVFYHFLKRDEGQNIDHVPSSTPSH

[2] = molecular target: T2, 2xPX (2xPX-GFP, tandem repeat of the SnxA PX domain) (Dictyostelium discoideum, UniProt Q54GY1); test: as above; assay type: binding; conditions: 5 mol% phosphoinositide in 95 mol% POPC bilayers on silica beads; 150 mM NaCl, 20 mM Hepes, 0.5 mM TCEP, room temperature; acyl chains not given; avidity of tandem domains; read-out: apparent Kd
T2 construct: gene DDB_G0289833; N-terminal 6xHis and eGFP kept; E. coli BL21; single population, apparent 104 kD by mass photometry

[3] = molecular target: full-length SnxA, recombinant N-terminal 6xHis and eGFP fusion (Dictyostelium discoideum); test: mass photometry; recombinant GFP fusions diluted to 25-50 nM in 250 mM NaCl, 20 mM Hepes, 0.5 M TCEP (so in the source) immediately before measurement; OneMP mass photometer; monomer to dimer

Substance	Kd [1] [nM]	Kd [2] [nM]	percent of the protein at the dimer's apparent mass [3] [%]	stoichiometry N [3]
PI(3,5)P2	187 ± 13	218 ± 7	–	–
full-length SnxA, recombinant N-terminal 6xHis and eGFP fusion (natural protein)	–	–	85	2
